Reference: publication PMC12526004, “Tiliroside Suppresses Uric Acid Production in Hepatocytes and Attenuates Purine-Induced Hyperuricemia in Male ICR Mice” (Molecules, 2025)

Assays:
XO = settings: read-out: IC50, XO inhibition (previous report); cited from earlier work
[1] = biological target: xanthine oxidase (bovine milk-derived) (Bos taurus, UniProt P80457); assay: XO inhibition assay in vitro (UV absorbance at 295 nm); format: biochemical; settings: xanthine substrate, 37 °C, mean of three independent experiments, read-out: IC50, direct XO inhibitory activity
Sequence of xanthine oxidase (bovine milk-derived) (P80457 whole entry): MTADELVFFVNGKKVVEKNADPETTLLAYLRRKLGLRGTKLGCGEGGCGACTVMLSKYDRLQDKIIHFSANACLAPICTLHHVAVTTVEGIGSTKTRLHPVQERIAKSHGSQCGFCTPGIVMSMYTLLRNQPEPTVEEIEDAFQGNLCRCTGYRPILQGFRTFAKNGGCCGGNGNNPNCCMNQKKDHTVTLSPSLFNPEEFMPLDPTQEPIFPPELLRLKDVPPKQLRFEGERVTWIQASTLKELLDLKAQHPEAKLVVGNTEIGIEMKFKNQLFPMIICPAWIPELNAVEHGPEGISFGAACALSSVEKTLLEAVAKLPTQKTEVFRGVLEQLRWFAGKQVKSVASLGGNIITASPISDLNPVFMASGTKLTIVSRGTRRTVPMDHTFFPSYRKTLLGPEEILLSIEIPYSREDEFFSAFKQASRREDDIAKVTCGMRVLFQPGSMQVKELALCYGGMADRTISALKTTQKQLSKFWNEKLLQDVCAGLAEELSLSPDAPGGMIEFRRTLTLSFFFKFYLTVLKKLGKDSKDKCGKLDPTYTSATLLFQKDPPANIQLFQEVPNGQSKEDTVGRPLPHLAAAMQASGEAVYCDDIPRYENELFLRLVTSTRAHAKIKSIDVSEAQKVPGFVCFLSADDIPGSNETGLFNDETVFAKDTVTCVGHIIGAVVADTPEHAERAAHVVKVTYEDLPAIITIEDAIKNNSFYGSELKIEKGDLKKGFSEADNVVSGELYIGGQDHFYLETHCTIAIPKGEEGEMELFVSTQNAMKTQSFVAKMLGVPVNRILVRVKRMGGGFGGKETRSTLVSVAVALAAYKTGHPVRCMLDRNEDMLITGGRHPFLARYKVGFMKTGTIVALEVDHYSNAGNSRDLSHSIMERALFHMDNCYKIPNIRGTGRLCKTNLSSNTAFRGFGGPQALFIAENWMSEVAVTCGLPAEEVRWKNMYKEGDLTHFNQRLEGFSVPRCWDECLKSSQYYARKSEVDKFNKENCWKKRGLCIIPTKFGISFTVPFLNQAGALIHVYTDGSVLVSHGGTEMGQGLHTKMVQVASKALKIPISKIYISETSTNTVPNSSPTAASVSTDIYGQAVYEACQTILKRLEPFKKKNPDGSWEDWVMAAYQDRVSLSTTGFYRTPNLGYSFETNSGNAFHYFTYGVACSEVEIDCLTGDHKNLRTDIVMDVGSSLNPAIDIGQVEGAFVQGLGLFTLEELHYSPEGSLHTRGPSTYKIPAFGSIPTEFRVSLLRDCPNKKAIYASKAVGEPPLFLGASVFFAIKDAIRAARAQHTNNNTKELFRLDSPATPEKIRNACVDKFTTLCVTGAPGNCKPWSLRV
Protocol: Prior to the assay, the compounds were freshly dissolved in a mixture of 30% dimethyl sulfoxide (DMSO; FUJIFILM Wako) and 70% phosphate buffer (100 mM, pH 7.5) to prepare test solutions at final concentrations ranging from 0 to 100 µM. In each well of a 96-well microplate, 50 µL of the test solution was mixed with 60 µL of buffer and 30 µL of xanthine oxidase (7.8 mU/mL, bovine milk-derived; Sigma-Aldrich). After preincubation at 37 °C for 10 min, the reaction was initiated by adding 60 µL of xanthine substrate (150 µM; FUJIFILM Wako). Absorbance at 295 nm was monitored for 30 min at 37 °C using a Spark 10 M microplate reader (Tecan Group Ltd., Männedorf, Switzerland). XO inhibitory activity was expressed as percentage inhibition, calculated using the formula Inhibition (%) = 100 × [1 − (B/A)], where A and B represent the absorbance increase in the absence and presence of the test compound, respectively. All measurements were performed in triplicate.
All experimental data are presented as mean ± SEM. […] Data from the in vitro XO inhibition assay are shown as mean values from three independent experiments. IC50 values were calculated by nonlinear regression analysis using dose–response curves generated from at least six concentrations of each compound. All statistical analyses were performed using GraphPad Prism version 10 (GraphPad Software, San Diego, CA, USA).

AML12 hepatocytes [2] = assay: Cell viability, WST-8 assay; format: cell-based; settings: concentrations up to 100 µM, 2 h
Protocol: The viability of AML12 cells was determined using the WST-8 assay provided in the Cell Counting Kit-8 (Dojindo Laboratories, Kumamoto, Japan). Cells were initially seeded at 5 × 10^3 cells per well in 96-well plates and maintained in DMEM/F-12 medium containing 10% (v/v) FBS for 72 h. To induce serum deprivation, the medium was replaced with serum-free DMEM/F-12, and cells were incubated for an additional 24 h. […] The treatment lasted for 2 h. Subsequently, cells were washed again with BSS and incubated with the WST-8 reagent for 1 h. Absorbance was measured at 490 nm using a microplate reader (MTP-310Lab; CORONA […] Co., Ltd., […], Japan). Cell viability was normalized to the DMSO control (0 μM), which was set at 100%.

AML12 hepatocytes [3] = assay: UA production by AML12 cells stimulated with UA precursors; format: cell-based; settings: for maximum reduction of UA production: guanosine + inosine (GI mixture) 100 µM each, vs control (0 µM); for UA production: UA precursor xanthine
Protocol: AML12 hepatocytes used in this study were acquired from ATCC (CRL-2254), Manassas, VA, USA. AML12 cells were maintained in DMEM/F-12 (Life Technologies, Grand Island, NY, USA) supplemented with 10% (v/v) fetal bovine serum (FBS; Hyclone, Logan, UT, USA), recombinant human insulin (5 µg/mL), human transferrin (5 µg/mL), and dexamethasone (40 ng/mL), each obtained from FUJIFILM Wako, as well as selenium (3 ng/mL, Sigma-Aldrich) and penicillin–streptomycin mixed solution (100 U/mL penicillin and 100 µg/mL streptomycin, Nacalai Tesque), under a humidified atmosphere of 5% CO2 at 37 °C. Culture of AML12 hepatocytes and measurement of UA production were conducted following a previously reported protocol.Cells were seeded at a density of 1.0 × 10^5 cells per well in 24-well plates and cultured for 72 h in complete medium, followed by 24 h in serum-free DMEM/F-12. After serum deprivation, cells were rinsed once with calcium- and magnesium-free phosphate-buffered saline [PBS (–)] and incubated in 200 µL of balanced salt solution (BSS) containing […], 5 mM KCl, 1 mM MgCl2, 0.8 mM CaCl2, 25 mM NaHCO3, 1 mM NaH2PO4, 10 mM HEPES, and 5 mM glucose. […] The final concentration of DMSO in all samples was adjusted to 0.15%. After a 2-h incubation, 200 µL of the reaction mixture was collected for UA quantification. The UA concentration in BSS was used as an indicator of UA production. Subsequently, cells were washed with PBS (–) and lysed in 300 µL of buffer containing 50 mM Tris and 1 mM sodium phosphate (pH 7.5). Lysates were sonicated and centrifuged (12,000× g, 5 min, 4 °C), and the supernatants were used for protein quantification using the Pierce™ BCA Protein Assay Kit (Thermo Fisher Scientific Inc., Waltham, MA, USA). UA levels were measured using the uricase-based Uric Acid C-Test Wako (FUJIFILM Wako). UA production was expressed as nanomoles per 2 h per milligram of cellular protein (nmol/2 h/mg protein).

IC50 [1] | Structure (SMILES) | IC50 (XO) | cytotoxic effects (cell viability) (AML12 hepatocytes [2]) | maximum reduction of UA production (AML12 hepatocytes [3]; 100 µM, 2 h) | UA production (AML12 hepatocytes [3]; 10 µM) | UA production (AML12 hepatocytes [3]; 30 µM) | UA production (AML12 hepatocytes [3]; 100 µM) | effect on UA production (AML12 hepatocytes [3]; concentrations up to 100 µM, GI mixture, 2 h)
43 µM | O=c1c(O[C@@H]2O[C@H](CO)[C@@H](O)[C@H](O)[C@H]2O)c(-c2ccc(O)cc2)oc2cc(O)cc(O)c12 [Astragalin, kaempferol-3-O-glucoside] | 49.5 µM | did not exhibit any cytotoxic effects | approximately 13.3% |  |  |  | 
 | O=c1c(O)c(-c2ccc(O)cc2)oc2cc(O)cc(O)c12 [Kaempferol, kaempferol] |  | did not exhibit any cytotoxic effects | ~97.2% | 236.0 ± 7.2 nmol/2 h/mg protein | 101.1 ± 2.8 nmol/2 h/mg protein | 31.4 ± 0.5 nmol/2 h/mg protein | 
> 100 µM | O=C(O)/C=C/c1ccc(O)cc1 [p-Coumaric acid, p-coumaric acid] |  | did not exhibit any cytotoxic effects |  |  |  |  | remained unaffected
